Experimental data reported in patent US20100160391A1, “Substituted Aminopyridines as Fluorescent Reporters for Amide Hydrolases” (priority 2006, published 2010).
Marks after values point to notes of the source that are not given here. Each block holds one compound with its values, some of them ahead of it.

Columns and labels:
[1] = Molar extinction coefficient of fluorescent reporters; type: physicochemical; conditions: H2O containing 1% ethanol, 290 nm, 30° C., 10-50 μM
Method: Molar extinction coefficient. According to Beer's law, Aλ=ε*C*L, where Aλ is the absorbance at wavelength (λ nm); ε is called the molar extinction coefficient; L is the width of the sample cuvette; and C is the concentration of the solute. In this example, a series of concentrations falling between 10 and 50 μM (final concentration) for each fluorescent reporter was used for determination of the molar extinction coefficient. Assays were performed in a quartz cuvette (1 cm optical passage). 10 μl of a stock solution of a reporter in ethanol (1, 2, 3, 4, or 5 mM) was added to 990 μl H2O. The resulting mixture was degassed by sonication with ultrasonic cleaner Model 750 (VWR International; Wester, Pa.) for 10 seconds at a power level of 9. Measurements were performed with a Spectra Max M2 spectrophotometer (Molecular Devices; Sunnyvale, Calif.) at a wavelength of 290 nm. A slope (or extinction coefficient) was obtained by using an average absorbance of triplicate samples.

[2] = Maximal excitation and emission wavelengths; type: physicochemical; conditions: 50 μM in 0.1 M phosphate buffer, 30° C.; SD ±2 nm
Method: Maximal excitation and emission wavelengths. A stock solution in ethanol of each compound (10 μl, 5 mM) was added to 990 μl of sodium phosphate buffer (0.1 M, pH 8.0, final substrate concentration 50 μM) in a 1-cm quartz cuvette. The quartz cuvette was scanned from 200 to 500 nm for absorption spectra with a Spectra Max M2 spectrophotometer. Maximal excitation and emission wavelengths were obtained from scanning from 250 to 600 nm and 360 to 600 nm by a 2 nm interval at 30° C., respectively.

[3] = Fluorescence quantum yield; type: physicochemical; conditions: 10 μM, 1% ethanol in water, excitation 290 nm, standard 3-aminopyridine; SD under ±5%
Method: Quantum yield. The fluorescence quantum yield, φf, was calculated according to the following equation:
ØF=Østd*(I/Istd)*(ODstd/OD)*(n/nstd)^2,
wherein ØF is the quantum yield of the tested fluorescent reporter; Østd is the fluorescence quantum yield of the standard; I and Istd are the integrated emission intensities of the sample and the standard, respectively; OD and ODstd are the absorbance of the sample and standard, respectively, at the desired wavelength λex; and n and nstd are the indexes of refraction of the sample and standard solutions, respectively (Horspool and Song (Eds.), CRC Handbook of Organic Photochemistry I, pp 234-235, CRC Press, Boca Raton, Fla., 1995).
In this example, 3-aminopyridine in water at the maximal excitation wavelength of 290 nm was used as a standard (Østd=0.32, εmax=2800 M^−1 cm^−1) (see, e.g., Weisstuch et al., J. Phys. Chem., 72:1982-1987 (1968)). In order to minimize inner filter effects, the optical densities of samples at the excitation wavelength (λ=290 nm) were kept in the range of 0.095-0.13 (less than 0.150-0.165). The final concentration of each tested sample in a quartz cuvette was 10 μM with 1% ethanol in water, same as that for the standard. The integrated area of fluorescent intensity for the standard or the samples was based on the area between 360 and 500 nm. The difference of the index of refraction between the standard and the sample was neglected because (1) all measurements were performed in the same quartz cuvette and spectrofluorimeter; (2) the final concentrations of the sample and the standard were the same; and (3) the structures of the sample and standard were very similar, i.e., only one pyridine ring. The quantum yields presented in Table 1 were based on calculation of the average of OD and integrated fluorescent intensities of triplicates. The standard deviation for each quantum yield was less than ±5%.

[4] = Dependence of relative fluorescent intensity on pH values; type: physicochemical; conditions: pH 6.0 to 9.0, sodium phosphate or Tris/HCl buffer, 25 μM
Method: The dependence of relative fluorescent intensity on pH values. 5-amino-2-methoxypyridine (6) was used to determine whether protonization/de-protonization affects the relative fluorescent intensities of the reporters. A stock solution of (6) in ethanol (5 μl, 5 mM) was added to 995 μl 0.1 M sodium phosphate buffer (from pH 6.0 to pH 8.0) or 0.1 M Tris/HCl buffer (pH 9.0) in a quartz cuvette (final substrate concentration 25 μM). Relative fluorescent unit/intensity (RFU) for emission spectra was recorded by a 2 nm interval at room temperature using a fixed excitation wavelength (λ=302 nm). The RFU of each pH value was an average of triplicates and the standard deviation for each point was less than 1%. Similarly, the RFU of the excitation spectrum was recorded by a 2 nm interval at room temperature using a fixed emission wavelength (λ=396 nm) in 0.1 M phosphate buffer (pH 8.0).

[5] = biological target: T1, microsomal fatty acid amide hydrolase (FAAH) (Homo sapiens, UniProt O00519); test: Lowest detection limits of microsomal FAAH toward colorimetric and fluorescent substrates; type: biochemical; conditions: for base line, Average: 0 min; for signal, Average: 10 min
T1 construct: made in house; host or cells: Trichoplusia ni High Five cells infected with recombinant baculovirus Ac-hFAAH; microsomal fraction
T1 sequence (O00519 1-579): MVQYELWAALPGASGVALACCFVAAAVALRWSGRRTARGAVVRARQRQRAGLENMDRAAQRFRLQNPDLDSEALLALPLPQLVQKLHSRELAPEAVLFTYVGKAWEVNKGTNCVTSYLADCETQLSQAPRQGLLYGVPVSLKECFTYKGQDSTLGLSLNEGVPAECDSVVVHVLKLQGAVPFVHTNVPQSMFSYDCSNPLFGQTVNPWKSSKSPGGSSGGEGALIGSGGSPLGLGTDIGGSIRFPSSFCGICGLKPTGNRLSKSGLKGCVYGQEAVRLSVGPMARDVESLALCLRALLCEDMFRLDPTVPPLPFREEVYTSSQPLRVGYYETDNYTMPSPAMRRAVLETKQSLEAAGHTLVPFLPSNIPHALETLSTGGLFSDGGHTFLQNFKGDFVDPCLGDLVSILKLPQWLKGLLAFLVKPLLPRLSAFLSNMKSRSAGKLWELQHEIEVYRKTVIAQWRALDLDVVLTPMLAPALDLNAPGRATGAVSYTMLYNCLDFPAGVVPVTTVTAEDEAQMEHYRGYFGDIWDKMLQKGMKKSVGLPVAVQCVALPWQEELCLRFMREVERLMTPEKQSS
Method: (§1) Preparation of recombinant human FAAH. Transgenic expression of the human FAAH in a baculovirus system was performed by following the method described in Nishi et al., Arch. Biochem. Biophys., 445:115-123 (2006). The cDNA encoding human FAAH (GenBank Accession No. NM_001441) was amplified by PCR using a human liver cDNA library (Invitrogen; Carlsbad, Calif.) as a template. The primer pair was 5′-[…]-3′ and 5′-[…]-3′. BglII and EcoRI endonuclease sites (underlined) were incorporated just upstream of the start codon and downstream of the stop codon of the coding sequence of FAAH, respectively. The PCR products were cloned into a pCR2.1 vector (Invitrogen) and the nucleotide sequence was verified by DNA sequencing. The cDNA fragments were then excised and directionally ligated to the BglII and EcoRI sites of the baculovirus transfer vector pAcUW21 (Lopez-Ferber et al., Baculovirus transfer vectors, in “Baculovirus Expression Protocols,” Richardson (Ed.), pp 25-63, Humana Press, Totowa, N.J., 1995). Recombinant baculoviruses harboring the human FAAH gene, Ac-hFAAH, were generated by co-transfection of Spodoptera frugiperda-derived Sf21 cells with the recombinant transfer vector plasmid and Bsu36I-cleaved BacPAK6 viral DNA (Clontech Laboratories; Mountain View, Calif.) as described in O'Reilly et al., Baculovirus Expression Vectors: A Laboratory Manual, Oxford University Press, New York, 1992. Trichoplusia ni-derived High Five cells (1×10^6 cells/ml) were inoculated with a high titer of Ac-hFAAH. At 72 hours post-infection, the infected cells were harvested by centrifugation at 2,000×g for 20 min at 4° C. and suspended in 50 mM Tris-HCl (pH 8.0) containing 150 mM NaCl, 1 mM EDTA, 1 μM pepstatin, 100 μM leupeptin, and 0.1 mg/ml aprotinin. The cell suspension was then homogenized using a Polytron homogenizer and centrifuged at 10,000×g for 20 min at 4° C. The microsomal fraction was collected by ultracentrifugation of the supernatant at 100,000×g for 60 min at 4° C. The pellet was resuspended in 20 mM Tris-HCl (pH 8.0) containing 10% (w/v) glycerol and 1% (w/v) Triton-X 100 and stored at −80° C. until use.
(§2) Comparison of the lowest detection limits of protein concentration of FAAH toward colorimetric and fluorescent substrates. In general, all assays were performed in 96-well styrene flat-bottom microtiter plates with a Spectra Max M2 spectrophotometer at 37° C. for […]. The total volume of each well was 201 μl consisting of 0.1 M sodium phosphate buffer (pH 8.0) (190 μl) containing 1% glycerol and 0.1% Triton-X 100, stock or diluted protein solution (10 μl), and the substrate solution (1 μl) in ethanol (final concentration 200 μM for 10, 11, 13 or 14) or in DMSO (final concentration 25 μM for 12, 15, or 16; 50 μM for 17). The lowest detection limits of microsomal fatty acid amide hydrolase (FAAH) by substrates were determined by the fact that the signal at 10 min after kinetic measurements are equal to or over three times the noise or basal line at 0 min. Colorimetric substrate (16) assays were performed in clear 96-well microtititer plates using an absorbance wavelength at 382 nm. The fluorescent substrates containing 5-amino-2-methoxypyridine (e.g., 10, 13) were measured at an excitation wavelength (302 nm), emission wavelength (396 nm), and auto cutoff wavelength (325 nm). Similarly, the fluorescent substrates containing 5-amino-2-methoxy-6-methylpyridine (e.g., 11, 14, and 17) were measured at an excitation wavelength (304 nm), emission wavelength (392 nm), and an auto cutoff wavelength of 325 nm. In addition, an excitation wavelength (366 nm), emission wavelength (496 nm), and auto cutoff wavelength (495 nm) were used for the substrates (e.g., 12 and 15) containing 7-amino-4-trifluoromethyl coumarin.

[6] = biological target: T2, fatty acid amide hydrolase (FAAH) (Homo sapiens, UniProt O00519); test: Kinetic study of FAAH toward substrates; type: biochemical
T2 construct: made in house; host or cells: Trichoplusia ni High Five cells infected with recombinant baculovirus Ac-hFAAH; microsomal fraction
T2 sequence (O00519 1-579): T1 sequence (O00519 1-579)
Method: as §1
Kinetic study. The kinetic assays were also performed as described above for the sensitivity assay. Briefly, a total volume of 201 μl contained 0.1 M sodium phosphate buffer (pH 8.0) (190 μl) with 1% glycerol and 0.1% Triton-X 100, protein solution (10 μl), and substrate solution (1 μl). The protein content was 0.67 μg per well (201 μl). The concentration of substrate (13) in DMSO was 200, 100, 50, 25, 12.5, 6.25, 3.13, 1.56, or 0.78 μM. Similarly, the concentration of substrate (17) in DMSO was 100, 50, 25, 12.5, 6.25, 3.13, 1.56, 0.78, or 0.39 μM. Four replicates were applied for each concentration. Reported kinetic data (km and Vmax) were analyzed by the SigmaPlot Enzyme Kinetics software (2001) using the Michaelis-Menten equation for all concentrations.

[7] = biological target: T3, human FAAH, microsomes from FAAH cells (Homo sapiens, UniProt O00519); test: Specific activity, microsomes from FAAH cells; type: biochemical
T3 construct: made in house; host or cells: Trichoplusia ni High Five cells infected with recombinant baculovirus Ac-hFAAH; microsomal fraction
T3 sequence (O00519 1-579): T1 sequence (O00519 1-579)
Method: as §1, §2
Specific activity determination. The assays for specific activities were performed as described above for the sensitivity assay. […]

[8] = tested on: amidases, microsomes from High Five cells; test: Specific activity, microsomes from High Five cells; conditions: pH 8.0, 37° C.; NM = not measurable at the same protein concentration as other substrates
Method: Preparation of recombinant human FAAH. Transgenic expression of the human FAAH in a baculovirus system was performed by following the method described in Nishi et al., Arch. […] The cDNA encoding human FAAH (GenBank Accession No. NM—001441) was amplified by PCR using a human liver cDNA library (Invitrogen; Carlsbad, Calif.) as a template. The primer pair was 5′-[sequence]-3′ and 5′-[sequence]-3′. BglII and EcoRI endonuclease sites (underlined) were incorporated just upstream of the start codon and downstream of the stop codon of the coding sequence of FAAH, respectively. The PCR products were cloned into a pCR2.1 vector (Invitrogen) and the nucleotide sequence was verified by DNA sequencing. The cDNA fragments were then excised and directionally ligated to the BglII and EcoRI sites of the baculovirus transfer vector pAcUW21 (Lopez-Ferber et al., Baculovirus transfer vectors, in “Baculovirus Expression Protocols,” Richardson (Ed.), pp 25-63, Humana Press, Totowa, N.J., 1995). Recombinant baculoviruses harboring the human FAAH gene, Ac-hFAAH, were generated by co-transfection of Spodoptera frugiperda-derived Sf21 cells with the recombinant transfer vector plasmid and Bsu36I-cleaved BacPAK6 viral DNA (Clontech Laboratories; Mountain View, Calif.) as described in O'Reilly et al., Baculovirus Expression Vectors: A Laboratory Manual, Oxford University Press, New York, 1992. Trichoplusia ni-derived High Five cells (1×10^6 cells/ml) were inoculated with a high titer of Ac-hFAAH. At 72 hours post-infection, the infected cells were harvested by centrifugation at 2,000×g for 20 min at 4° C. and suspended in 50 mM Tris-HCl (pH 8.0) containing 150 mM NaCl, 1 mM EDTA, 1 μM pepstatin, 100 μM leupeptin, and 0.1 mg/ml aprotinin. The cell suspension was then homogenized using a Polytron homogenizer and centrifuged at 10,000×g for 20 min at 4° C. […]
Comparison of the lowest detection limits of protein concentration of FAAH toward colorimetric and fluorescent substrates. […] The lowest detection limits of microsomal fatty acid amide hydrolase (FAAH) by substrates were determined by the fact that the signal at 10 min after kinetic measurements are equal to or over three times the noise or basal line at 0 min. Colorimetric substrate (16) assays were performed in clear 96-well microtititer plates using an absorbance wavelength at 382 nm. The fluorescent substrates containing 5-amino-2-methoxypyridine (e.g., 10, 13) were measured at an excitation wavelength (302 nm), emission wavelength (396 nm), and auto cutoff wavelength (325 nm). Similarly, the fluorescent substrates containing 5-amino-2-methoxy-6-methylpyridine (e.g., 11, 14, and 17) were measured at an excitation wavelength (304 nm), emission wavelength (392 nm), and an auto cutoff wavelength of 325 nm. […]

[9] = protein 0.11 (13), 0.67 (14), 100 (15), 0.5 (17) μg/well, 200 μM (13),(14), 25 μM (15), 50 μM (17)
[10] = pH 8.0, 37° C., 0.67 μg protein per well, Michaelis-Menten
[11] = FAAH sensitivity assay, Table 2
[12] = absorbance 382 nm, protein 100 μg/well, 25 μM

base line, Average [5, 9]: 132 RFU | signal, Average [5, 9]: 161 RFU | times less sensitive than substrate (13) [5, 11]: at least 900 times | times less sensitive than substrate (14) [5, 11]: ≥ 150 times | melting point: 136.6 to 137.1 °C
Compound: CCCCCCCC(=O)Nc1ccc2c(C(F)(F)F)cc(=O)oc2c1 [Compound 15, N-(4-(trifluoromethyl)-2-oxo-2H-chromen-7-yl) octanamide]

base line, Average [5, 12]: 0.16 OD | signal, Average [5, 12]: 0.18 OD | melting point: 80.9 to 81.6 °C
Compound: CCCCCCCC(=O)Nc1ccc([N+](=O)[O-])cc1 [Compound 16, N-(4-nitrophenyl) octanamide]

Further lines, the compound ahead of its results:

Compound: COc1ccc(N)cn1 [Compound 6, 5-amino-2-methoxypyridine]
εmax, molar extinction coefficient [1]: 2340 M⁻¹ cm⁻¹ | Em, maximal emission wavelength [2]: 396 nm | Ex, maximal excitation wavelength [2]: 302 nm | ØF, fluorescence quantum yield [3]: 0.95 | relative fluorescent intensity of excitation or emission as function of pH [4]: increased with an increase of pH value

Compound: CCCCC/C=C\C/C=C\C/C=C\C/C=C\CCCC(=O)Nc1ccc(OC)nc1 [Compound 17]
base line, Average [5, 9]: 148 RFU | signal, Average [5, 9]: 559* RFU | Protein, lowest detection limit of microsomal FAAH (signal at 10 min ≥ three times base line) ([5]; pH 8): 0.5 μg/200 μ′ | lowest detection limit of protein ([5]; signal at 10 min equal to three times base line): 2.5 μg protein/ml | Selectivity ratio ([6]; Vmax/Km of substrate over that of oleamide (5.5 × 10^−2)): 54.5 | Km [6, 10]: 12.5 µM | Vmax [6, 10]: 36.7 nmol/min/mg | enhancement of activity, microsomes from FAAH-expressing cells compared with High Five cells [7]: 4180 times | Specific activity, Microsomes from FAAH cells ([7]; pH 8): 23.5 ± 0.7 nmol/min/mg protein | Specific activity, Microsomes from High Five cells [8]: 5.62 ± 0.67 pmol/min/mg protein

Compound: COc1ccc(NC(C)=O)cn1 [Compound 10, N-(6-methoxypyridin-3-yl) acetamide]
Specific activity, Microsomes from High Five cells [8]: 56 ± 2 pmol/min/mg protein
